Here are results for 20 compounds from paper PMC9940855, “First-in-Class Dual Hybrid Carbonic Anhydrase Inhibitors and Transient Receptor Potential Vanilloid 1 Agonists Revert Oxaliplatin-Induced Neuropathy” (Journal of Medicinal Chemistry, 2023).

Structures are written as SMILES. pEC50, pKi: −log10 of the molar value. Where “and” joins values, the source holds several entries; their conditions need not be identical. Equal entries are not always repeated.

For orientation: pKi means −log10 of the Ki, conventionally taken in molar units. Broadly, the pEC50 is −log10 of the EC50, conventionally taken in molar units.

In one assay the target is hCA VII (Homo sapiens, UniProt P43166). To be noted: read-out: KI hCA VII; stopped-flow CO2 hydrase assay; mean from three different assays, errors ±5–10%.
The target of a further assay is hCA IV (Homo sapiens, UniProt P22748). To be noted: read-out: KI hCA IV; stopped-flow CO2 hydrase assay; mean from three different assays, errors ±5–10%.
A further assay concerns the target T1, hCA IX (Homo sapiens, UniProt Q16790).
T1 construct: made in house
The format is biochemical.

A further assay deals with hCA I (Homo sapiens, UniProt P00915). To be noted: read-out: KI hCA I; stopped-flow CO2 hydrase assay; mean from three different assays, errors ±5–10%.
The next assay concerns the target T2, TRPV1 receptor (Homo sapiens, UniProt Q8NER1).
T2 construct: expressed in transfected cells
The assay is described as follows: TRPV1 assay, Fluo-4NW fluorescence in SH-SY5Y-TRPV1 cells. It counts as cell-based. As to conditions: read-out: EC50 on TRPV1 receptor activity (agonism). As to the method: SH-SY5Y-TRPV1 cells (kindly provided by Johanna Lilja and Anna Forsby (University of Stockholm, Stockholm, Sweden))[40] were cultured in 96 wells. Upon 90% confluence had been reached, the cells were loaded with 5 μM Fluo-4NW for 1 h at 37 °C. […] Briefly, after measuring the basal fluorescence of the plate (four cycles), testing compounds were added to the plate, and the fluorescence was measured for additional 10 cycles; thereafter, 10 μM capsaicin was added with a microinjector and the fluorescence was monitored for an additional 10 cycles.

The target in another assay is hCA XII (Homo sapiens, UniProt O43570). To be noted: read-out: KI hCA XII; stopped-flow CO2 hydrase assay; mean from three different assays, errors ±5–10%.
Another assay addresses hCA II (Homo sapiens, UniProt P00918). To be noted: read-out: KI hCA II; stopped-flow CO2 hydrase assay; mean from three different assays, errors ±5–10%.

hCA I, sequence (P00915 whole entry): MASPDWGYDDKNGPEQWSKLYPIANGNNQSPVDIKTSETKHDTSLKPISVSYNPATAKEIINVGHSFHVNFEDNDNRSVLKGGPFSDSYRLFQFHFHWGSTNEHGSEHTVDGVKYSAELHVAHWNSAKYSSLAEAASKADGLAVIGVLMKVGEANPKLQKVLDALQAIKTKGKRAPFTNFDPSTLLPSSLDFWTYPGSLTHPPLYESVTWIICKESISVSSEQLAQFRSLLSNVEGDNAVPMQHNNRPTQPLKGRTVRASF
hCA XII, sequence (O43570 25-354): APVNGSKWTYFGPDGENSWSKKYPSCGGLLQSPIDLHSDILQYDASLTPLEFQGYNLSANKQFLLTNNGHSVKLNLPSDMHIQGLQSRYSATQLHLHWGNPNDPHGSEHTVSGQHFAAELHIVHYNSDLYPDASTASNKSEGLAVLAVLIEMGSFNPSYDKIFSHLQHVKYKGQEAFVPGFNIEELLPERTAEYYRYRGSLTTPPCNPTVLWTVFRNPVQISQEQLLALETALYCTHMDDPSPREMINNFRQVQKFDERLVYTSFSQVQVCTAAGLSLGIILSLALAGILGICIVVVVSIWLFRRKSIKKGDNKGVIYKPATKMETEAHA
hCA IV, sequence (P22748 19-312): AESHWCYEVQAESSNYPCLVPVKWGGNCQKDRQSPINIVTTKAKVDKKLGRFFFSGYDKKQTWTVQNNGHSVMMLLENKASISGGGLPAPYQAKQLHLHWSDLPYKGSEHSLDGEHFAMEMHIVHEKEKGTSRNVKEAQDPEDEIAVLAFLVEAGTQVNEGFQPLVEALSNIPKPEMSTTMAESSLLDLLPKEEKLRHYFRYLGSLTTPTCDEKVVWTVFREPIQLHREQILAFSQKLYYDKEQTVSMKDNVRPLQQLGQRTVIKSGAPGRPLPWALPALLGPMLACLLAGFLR
T2 sequence (Q8NER1 whole entry): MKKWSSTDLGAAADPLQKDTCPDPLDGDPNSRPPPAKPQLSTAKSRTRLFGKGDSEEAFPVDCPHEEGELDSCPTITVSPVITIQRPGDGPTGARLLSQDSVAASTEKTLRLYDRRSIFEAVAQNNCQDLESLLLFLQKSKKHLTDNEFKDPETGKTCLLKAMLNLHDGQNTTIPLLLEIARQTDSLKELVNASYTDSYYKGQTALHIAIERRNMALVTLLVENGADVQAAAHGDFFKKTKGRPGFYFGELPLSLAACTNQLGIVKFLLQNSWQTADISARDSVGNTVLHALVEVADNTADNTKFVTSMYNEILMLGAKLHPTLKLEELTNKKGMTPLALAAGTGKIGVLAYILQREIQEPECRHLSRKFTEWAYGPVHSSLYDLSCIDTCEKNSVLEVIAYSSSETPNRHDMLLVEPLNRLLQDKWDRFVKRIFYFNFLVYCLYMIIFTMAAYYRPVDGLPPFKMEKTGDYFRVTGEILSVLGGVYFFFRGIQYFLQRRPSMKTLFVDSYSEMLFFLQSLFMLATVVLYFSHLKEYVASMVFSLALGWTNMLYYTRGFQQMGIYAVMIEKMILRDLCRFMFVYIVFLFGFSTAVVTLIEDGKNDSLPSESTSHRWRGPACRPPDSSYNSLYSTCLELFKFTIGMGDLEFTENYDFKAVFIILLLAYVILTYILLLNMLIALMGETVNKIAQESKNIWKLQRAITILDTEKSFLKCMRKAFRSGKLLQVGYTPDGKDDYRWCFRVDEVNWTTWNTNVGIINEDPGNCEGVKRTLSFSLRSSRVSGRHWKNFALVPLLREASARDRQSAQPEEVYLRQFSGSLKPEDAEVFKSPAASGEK
hCA VII, sequence (P43166 whole entry): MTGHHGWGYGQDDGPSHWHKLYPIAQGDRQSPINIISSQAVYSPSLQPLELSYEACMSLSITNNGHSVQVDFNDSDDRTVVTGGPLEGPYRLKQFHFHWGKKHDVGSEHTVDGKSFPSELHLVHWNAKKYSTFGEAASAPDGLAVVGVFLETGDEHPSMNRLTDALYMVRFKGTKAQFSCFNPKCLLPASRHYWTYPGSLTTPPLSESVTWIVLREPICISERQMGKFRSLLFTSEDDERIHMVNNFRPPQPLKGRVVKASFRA

For the compound `NS(=O)(=O)c1ccc(N2CC[C@@H](NC(=O)Nc3ccc(Cl)c(C(F)(F)F)c3)C2)nc1` [10a, (R)-6-(3-(3-(4-Chloro-3-(trifluoromethyl)phenyl)ureido)pyrrolidin-1-yl)pyridine-3-sulfonamide], the pKi at hCA VII is 7.10; at hCA IV it was 5.40; at hCA IX, 6.13; on hCA I, 6.10. Besides, the pEC50 at TRPV1 receptor is 4.13.
As for `NS(=O)(=O)c1ccc(N2CC[C@@H](NC(=O)Nc3ccccc3F)C2)nc1` [11a, (R)-6-(3-(3-(2-Fluorophenyl)ureido)pyrrolidin-1-yl)pyridine-3-sulfonamide], the negative-log Ki (pKi) was 7.14 on hCA XII, 6.73 on hCA VII and 7.43 on hCA I. Also, the pEC50 at TRPV1 receptor was less than 4.00.
Turning to `NS(=O)(=O)c1ccc(N2CC[C@@H](NC(=O)Nc3ccccc3Cl)C2)nc1` [12a, (R)-6-(3-(3-(2-Chlorophenyl)ureido)pyrrolidin-1-yl)pyridine-3-sulfonamide], the negative logarithm of the Ki (pKi) is 7.08 on hCA XII; 7.13 on hCA VII; 5.52 at hCA IV; 6.50 at hCA IX; 7.08 on hCA I. Also, the negative logarithm of the EC50 (pEC50) on TRPV1 receptor is 4.92.
Regarding `NS(=O)(=O)c1ccc(N2CC[C@@H](NC(=O)Nc3ccc(Oc4ccccc4)cc3)C2)nc1` [13a, (R)-6-(3-(3-(4-Phenoxyphenyl)ureido)pyrrolidin-1-yl)pyridine-3-sulfonamide], the pKi on hCA XII was 6.39; on hCA VII, 7.11; at hCA IX, 6.61. Also, the pEC50 on TRPV1 receptor was less than 4.00.
As for `NS(=O)(=O)c1ccc(N2CC[C@@H](NC(=S)Nc3ccc(C4c5ccc(O)cc5Oc5cc(O)ccc54)c(C(=O)O)c3)C2)nc1` [17a, (R)-2-(3,6-Dihydroxy-9H-xanthen-9-yl)-5-(3-(1-(5-sulfamoylpyridin-2-yl)pyrrolidin-3-yl)thioureido)benzoic Acid], the pKi on hCA XII is 8.41; at hCA VII, 8.11; on hCA IV, 6.07; on hCA II, 7.37; on hCA IX, 7.49; on hCA I it was 7.09.
For the compound `NS(=O)(=O)c1ccc(N2CC[C@H](NC(=S)Nc3ccc(C4c5ccc(O)cc5Oc5cc(O)ccc54)c(C(=O)O)c3)C2)nc1` [17b, (S)-2-(3,6-Dihydroxy-9H-xanthen-9-yl)-5-(3-(1-(5-sulfamoylpyridin-2-yl)pyrrolidin-3-yl)thioureido)benzoic Acid], the negative-log Ki (pKi) at hCA XII is 7.56; on hCA VII, 7.83; at hCA IV, 5.28; on hCA II, 7.37; on hCA IX, 8.07; on hCA I, 7.04.
As for `COc1ccccc1NC(=O)N[C@H]1CCN(c2ccc(S(N)(=O)=O)cn2)C1` [18b, (S)-6-(3-(3-(2-Methoxyphenyl)ureido)pyrrolidin-1-yl)pyridine-3-sulfonamide], the pKi on hCA XII was 7.41; on hCA VII, 7.23; on hCA IV, 5.10; on hCA II, 6.51; at hCA IX it was 7.21; on hCA I, 6.32.
Consider `NS(=O)(=O)c1ccc(N2CC[C@@H](NC(=O)NS(=O)(=O)c3ccccc3)C2)nc1` [24a, (R)-6-(3-(3-(Phenylsulfonyl)ureido)pyrrolidin-1-yl)pyridine-3-sulfonamide], for which the negative logarithm of the Ki (pKi) on hCA XII was 7.31; at hCA VII, 7.10; at hCA IV, 7.44; on hCA II, 6.29; at hCA IX, 7.56; on hCA I it was 7.71.
On to `NS(=O)(=O)c1ccc(NC(=S)N[C@H]2CCN(c3cccc([N+](=O)[O-])n3)C2)cc1` [37b, (S)-4-(3-(1-(6-Nitropyridin-2-yl)pyrrolidin-3-yl)thioureido)benzenesulfonamide], for which the negative logarithm of the Ki (pKi) on hCA XII is 8.06; on hCA VII, 8.11; at hCA IV, 5.49; on hCA II, 8.31; on hCA IX, 8.89; on hCA I it was 7.26.
Turning to `NS(=O)(=O)c1cccc(NC(=S)N[C@H]2CCN(c3cccc([N+](=O)[O-])n3)C2)c1` [38b, (S)-3-(3-(1-(6-Nitropyridin-2-yl)pyrrolidin-3-yl)thioureido)benzenesulfonamide], the pKi at hCA XII was 8.03; at hCA VII, 7.81; on hCA IV it was 5.89; at hCA II it was 8.41; at hCA IX, 8.85; at hCA I it was 8.06. Besides, the “fold more active than its enantiomer, hCA IX” value on hCA IX is recorded as “over 100 fold”.
As for `NS(=O)(=O)c1ccc(NC(=S)N[C@@H]2CCN(c3ccc(C(F)(F)F)cn3)C2)cc1` [39a, (R)-4-(3-(1-(5-(Trifluoromethyl)pyridin-2-yl)pyrrolidin-3-yl)thioureido)benzenesulfonamide], the negative-log Ki (pKi) at hCA XII is 7.20; at hCA VII, 7.13; at hCA IV it was 5.30; on hCA IX it was 6.45. In addition, the pEC50 on TRPV1 receptor is 4.90 and 4.91.
With `NS(=O)(=O)c1ccc(NC(=S)N[C@H]2CCN(c3ccc(C(F)(F)F)cn3)C2)cc1` [39b, (S)-4-(3-(1-(5-(Trifluoromethyl)pyridin-2-yl)pyrrolidin-3-yl)thioureido)benzenesulfonamide], the pKi is 8.03 at hCA XII, 7.80 on hCA VII, 5.01 on hCA IV and 8.22 at hCA IX. Also, at TRPV1 receptor, the pEC50 was 4.90.
For the compound `NS(=O)(=O)c1cccc(NC(=S)N[C@@H]2CCN(c3ccc(C(F)(F)F)cn3)C2)c1` [40a, (R)-3-(3-(1-(5-(Trifluoromethyl)pyridin-2-yl)pyrrolidin-3-yl)thioureido)benzenesulfonamide], the negative logarithm of the Ki (pKi) is 7.26 at hCA VII, 7.44 at hCA IX and 6.31 at hCA I. Also, the negative logarithm of the EC50 (pEC50) on TRPV1 receptor is 4.66.
Take `NS(=O)(=O)c1ccc(NC(=O)N[C@@H]2CCN(c3ccccn3)C2)cc1` [41a, (R)-4-(3-(1-(Pyridin-2-yl)pyrrolidin-3-yl)ureido)benzenesulfonamide]: the pKi at hCA XII was 7.50; on hCA VII it was 8.02; on hCA IV, 5.45; on hCA II, 8.10; on hCA IX it was 7.54; on hCA I, 7.23.
In the case of `NS(=O)(=O)c1cccc(NC(=O)N[C@@H]2CCN(c3ccccn3)C2)c1` [42a, (R)-3-(3-(1-(Pyridin-2-yl)pyrrolidin-3-yl)ureido)benzenesulfonamide], the pKi on hCA XII was 8.09; on hCA VII, 8.09; on hCA IV it was 5.61; on hCA II, 8.77; on hCA IX it was 6.90; on hCA I it was 8.02.
In the case of `NS(=O)(=O)c1ccc(NC(=O)N[C@H]2CCN(c3cccc([N+](=O)[O-])n3)C2)cc1` [43b, (S)-4-(3-(1-(6-Nitropyridin-2-yl)pyrrolidin-3-yl)ureido)benzenesulfonamide], the pKi on hCA XII was 8.04; at hCA VII it was 8.06; at hCA IV it was 5.08; at hCA II it was 7.83; on hCA IX it was 7.57; at hCA I it was 7.12.
As for `NS(=O)(=O)c1cccc(NC(=O)N[C@@H]2CCN(c3cccc([N+](=O)[O-])n3)C2)c1` [44a, (R)-3-(3-(1-(6-Nitropyridin-2-yl)pyrrolidin-3-yl)ureido)benzenesulfonamide], the pKi at hCA XII was 7.42; at hCA VII it was 7.13; on hCA IV, 5.68; at hCA II, 8.21; at hCA IX it was 6.01; at hCA I, 7.12.
As to `NS(=O)(=O)c1cccc(NC(=O)N[C@H]2CCN(c3cccc([N+](=O)[O-])n3)C2)c1` [44b, (S)-3-(3-(1-(6-Nitropyridin-2-yl)pyrrolidin-3-yl)ureido)benzenesulfonamide], the negative-log Ki (pKi) at hCA XII was 7.32; on hCA VII, 7.75; on hCA IV, 5.02; on hCA II, 8.18; at hCA IX it was 6.72; on hCA I, 7.06.
Turning to `NS(=O)(=O)c1ccc(NC(=O)N[C@@H]2CCN(c3ccc(C(F)(F)F)cn3)C2)cc1` [45a, (R)-4-(3-(1-(5-(Trifluoromethyl)pyridin-2-yl)pyrrolidin-3-yl)ureido)benzenesulfonamide], the pKi was 8.20 on hCA XII; 8.09 at hCA VII; 5.41 on hCA IV; 7.56 at hCA II; 7.44 on hCA IX; 7.14 on hCA I.
Regarding `NS(=O)(=O)c1ccc(NC(=O)N[C@H]2CCN(c3ccc(C(F)(F)F)cn3)C2)cc1` [45b, (S)-4-(3-(1-(5-(Trifluoromethyl)pyridin-2-yl)pyrrolidin-3-yl)ureido)benzenesulfonamide], the pKi on hCA XII was 8.07; on hCA VII, 7.89; at hCA IV, 5.01; at hCA II it was 7.33; at hCA IX, 7.27; at hCA I, 7.16.
